# Test system: 323965-272-R-J2-PDC complex spheroid growth, % test/control
# Assay: Anticancer human tumor 323965-272-R-J2-PDC patient-derived pancreatic carcinoma cell line growth inhibition [Asc]
# Conditions: for IC50: curve of first compound; for viability, T/C: stronger effect = lower value
# How it was run: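 Complex solid-tumor spheroids incorporating human endothelial and mesenchymal stem cells received single agents or combinations over half-log dilution ranges anchored to clinical Cmax.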
# [1] = second compound 0.00949 µM, first compound 0.00316 µM
# [2] = second compound 0.00949 µM, first compound 0.01 µM
# [3] = second compound 0.00949 µM, first compound 0.0316 µM
# [4] = second compound 0.00949 µM, first compound 0.1 µM
# [5] = second compound 0.00949 µM, first compound 0.316 µM
# [6] = second compound 0.00949 µM, first compound 1 µM
# [7] = second compound 0.03 µM, first compound 0.00316 µM
# [8] = second compound 0.03 µM, first compound 0.01 µM
# [9] = second compound 0.03 µM, first compound 0.0316 µM
# [10] = second compound 0.03 µM, first compound 0.1 µM
# [11] = second compound 0.03 µM, first compound 0.316 µM
# [12] = second compound 0.03 µM, first compound 1 µM
# [13] = second compound 0.0949 µM, first compound 0.00316 µM
# [14] = second compound 0.0949 µM, first compound 0.01 µM
# [15] = second compound 0.0949 µM, first compound 0.0316 µM
# [16] = second compound 0.0949 µM, first compound 0.1 µM
# [17] = second compound 0.0949 µM, first compound 0.316 µM
# [18] = second compound 0.0949 µM, first compound 1 µM
# [19] = second compound 0.3 µM, first compound 0.00316 µM
# [20] = second compound 0.3 µM, first compound 0.01 µM
# [21] = second compound 0.3 µM, first compound 0.0316 µM
# [22] = second compound 0.3 µM, first compound 0.1 µM
# [23] = second compound 0.3 µM, first compound 0.316 µM
# [24] = second compound 0.3 µM, first compound 1 µM
# [25] = second compound 0.949 µM, first compound 0.00316 µM
# [26] = second compound 0.949 µM, first compound 0.01 µM
# [27] = second compound 0.949 µM, first compound 0.0316 µM
# [28] = second compound 0.949 µM, first compound 0.1 µM
# [29] = second compound 0.949 µM, first compound 0.316 µM
# [30] = second compound 0.949 µM, first compound 1 µM
# [31] = second compound 3 µM, first compound 0.00316 µM
# [32] = second compound 3 µM, first compound 0.01 µM
# [33] = second compound 3 µM, first compound 0.0316 µM
# [34] = second compound 3 µM, first compound 0.1 µM
# [35] = second compound 3 µM, first compound 0.316 µM
# [36] = second compound 3 µM, first compound 1 µM
# 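Also: compound exposure lasted 7 days starting three days after spheroid seeding.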
# 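For viability, T/C in this document: 100% = DMSO vehicle control wells with viability set relative to vehicle.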
smiles,measurement,setting,value
COc1c(OCCCN2CCOCC2)ccc2c3n(c(=NC(=O)c4cnc(N)nc4)nc12)CCN3 + CCN1C(C(=O)NC23CCC(C(=O)O)(CC2)CC3)C(c2cccc(Cl)c2F)C2(C(=O)Nc3cc(Cl)ccc32)C12CCCCC2,IC50,second compound 0.00949 µM,151 nM
same,IC50,second compound 0.03 µM,130 nM
same,IC50,second compound 0.0949 µM,130 nM
same,IC50,second compound 0.3 µM,133 nM
same,IC50,second compound 0.949 µM,138 nM
same,IC50,second compound 3 µM,102 nM
same,"viability, T/C",[1],96%
same,"viability, T/C",[2],97.7%
same,"viability, T/C",[3],70.7%
same,"viability, T/C",[4],62.5%
same,"viability, T/C",[5],34.2%
same,"viability, T/C",[6],25.7%
same,"viability, T/C",[7],103%
same,"viability, T/C",[8],96.4%
same,"viability, T/C",[9],73.3%
same,"viability, T/C",[10],52.2%
same,"viability, T/C",[11],42.2%
same,"viability, T/C",[12],30.4%
same,"viability, T/C",[13],97%
same,"viability, T/C",[14],85.6%
same,"viability, T/C",[15],78.5%
same,"viability, T/C",[16],50.7%
same,"viability, T/C",[17],38.4%
same,"viability, T/C",[18],25.5%
same,"viability, T/C",[19],101%
same,"viability, T/C",[20],89.2%
same,"viability, T/C",[21],69.8%
same,"viability, T/C",[22],56.3%
same,"viability, T/C",[23],36.6%
same,"viability, T/C",[24],27.6%
same,"viability, T/C",[25],99.7%
same,"viability, T/C",[26],82.7%
same,"viability, T/C",[27],70.3%
same,"viability, T/C",[28],51%
same,"viability, T/C",[29],42.3%
same,"viability, T/C",[30],30.1%
same,"viability, T/C",[31],89.4%
same,"viability, T/C",[32],82.4%
same,"viability, T/C",[33],63.9%
same,"viability, T/C",[34],49.6%
same,"viability, T/C",[35],38.5%
same,"viability, T/C",[36],26%
NC(=O)C(=Cn1cnc(-c2cc(C(F)(F)F)cc(C(F)(F)F)c2)n1)c1cncnc1 + CNC(C)C(=O)NC1CN(S(=O)(=O)c2cccc(S(=O)(=O)N3CCC4CCC(C(=O)NC(c5ccccc5)c5ccccc5)N4C(=O)C(NC(=O)C(C)NC)C3)c2)CCC2CCC(C(=O)NC(c3ccccc3)c3ccccc3)N2C1=O,IC50,second compound 0.00316 µM,> 300 nM
same,IC50,second compound 0.01 µM,> 300 nM
same,IC50,second compound 0.0316 µM,> 300 nM
same,IC50,second compound 0.1 µM,> 300 nM
same,IC50,second compound 0.316 µM,> 300 nM
same,IC50,second compound 1 µM,> 300 nM
same,"viability, T/C","second compound 0.00316 µM, first compound 0.000949 µM",121%
same,"viability, T/C","second compound 0.00316 µM, first compound 0.003 µM",120%
same,"viability, T/C","second compound 0.00316 µM, first compound 0.00949 µM",97.1%
same,"viability, T/C","second compound 0.00316 µM, first compound 0.03 µM",99.6%
same,"viability, T/C","second compound 0.00316 µM, first compound 0.0949 µM",70.7%
same,"viability, T/C","second compound 0.00316 µM, first compound 0.3 µM",76.2%
same,"viability, T/C","second compound 0.01 µM, first compound 0.000949 µM",103%
same,"viability, T/C","second compound 0.01 µM, first compound 0.003 µM",108%
same,"viability, T/C","second compound 0.01 µM, first compound 0.00949 µM",109%
same,"viability, T/C","second compound 0.01 µM, first compound 0.03 µM",91.1%
same,"viability, T/C","second compound 0.01 µM, first compound 0.0949 µM",78.8%
same,"viability, T/C","second compound 0.01 µM, first compound 0.3 µM",62.5%
same,"viability, T/C","second compound 0.0316 µM, first compound 0.000949 µM",103%
same,"viability, T/C","second compound 0.0316 µM, first compound 0.003 µM",109%
same,"viability, T/C","second compound 0.0316 µM, first compound 0.00949 µM",108%
same,"viability, T/C","second compound 0.0316 µM, first compound 0.03 µM",86.7%
same,"viability, T/C","second compound 0.0316 µM, first compound 0.0949 µM",74.5%
same,"viability, T/C","second compound 0.0316 µM, first compound 0.3 µM",61.7%
same,"viability, T/C","second compound 0.1 µM, first compound 0.000949 µM",105%
same,"viability, T/C","second compound 0.1 µM, first compound 0.003 µM",104%
same,"viability, T/C","second compound 0.1 µM, first compound 0.00949 µM",104%
same,"viability, T/C","second compound 0.1 µM, first compound 0.03 µM",87%
same,"viability, T/C","second compound 0.1 µM, first compound 0.0949 µM",80.4%
same,"viability, T/C","second compound 0.1 µM, first compound 0.3 µM",62.5%
same,"viability, T/C","second compound 0.316 µM, first compound 0.000949 µM",107%
same,"viability, T/C","second compound 0.316 µM, first compound 0.003 µM",111%
same,"viability, T/C","second compound 0.316 µM, first compound 0.00949 µM",96.3%
same,"viability, T/C","second compound 0.316 µM, first compound 0.03 µM",93.6%
same,"viability, T/C","second compound 0.316 µM, first compound 0.0949 µM",77.1%
same,"viability, T/C","second compound 0.316 µM, first compound 0.3 µM",62.4%
same,"viability, T/C","second compound 1 µM, first compound 0.000949 µM",101%
same,"viability, T/C","second compound 1 µM, first compound 0.003 µM",104%
same,"viability, T/C","second compound 1 µM, first compound 0.00949 µM",77.3%
same,"viability, T/C","second compound 1 µM, first compound 0.03 µM",83.7%
same,"viability, T/C","second compound 1 µM, first compound 0.0949 µM",78.4%
same,"viability, T/C","second compound 1 µM, first compound 0.3 µM",71%
CCN1CCN(Cc2ccc(Nc3ncc(F)c(-c4cc(F)c5nc(C)n(C(C)C)c5c4)n3)nc2)CC1 + CCN1C(C(=O)NC23CCC(C(=O)O)(CC2)CC3)C(c2cccc(Cl)c2F)C2(C(=O)Nc3cc(Cl)ccc32)C12CCCCC2,IC50,second compound 0.00949 µM,> 1000 nM
same,IC50,second compound 0.03 µM,> 1000 nM
same,IC50,second compound 0.0949 µM,> 1000 nM
same,IC50,second compound 0.3 µM,> 1000 nM
same,IC50,second compound 0.949 µM,> 1000 nM
same,IC50,second compound 3 µM,> 1000 nM
same,"viability, T/C",[1],107%
same,"viability, T/C",[2],107%
same,"viability, T/C",[3],105%
same,"viability, T/C",[4],86.2%
same,"viability, T/C",[5],68.7%
same,"viability, T/C",[6],77%
same,"viability, T/C",[7],103%
same,"viability, T/C",[8],104%
same,"viability, T/C",[9],96.7%
same,"viability, T/C",[10],84.5%
same,"viability, T/C",[11],69.5%
same,"viability, T/C",[12],65.8%
same,"viability, T/C",[13],118%
same,"viability, T/C",[14],112%
same,"viability, T/C",[15],92.2%
same,"viability, T/C",[16],80%
same,"viability, T/C",[17],70.3%
same,"viability, T/C",[18],65.2%
same,"viability, T/C",[19],111%
same,"viability, T/C",[20],104%
same,"viability, T/C",[21],96.6%
same,"viability, T/C",[22],78.9%
same,"viability, T/C",[23],85.1%
same,"viability, T/C",[24],77.1%
same,"viability, T/C",[25],99.8%
same,"viability, T/C",[26],107%
same,"viability, T/C",[27],95.9%
same,"viability, T/C",[28],85.8%
same,"viability, T/C",[29],73.1%
same,"viability, T/C",[30],77.5%
same,"viability, T/C",[31],101%
same,"viability, T/C",[32],115%
same,"viability, T/C",[33],97%
same,"viability, T/C",[34],77%
same,"viability, T/C",[35],78%
same,"viability, T/C",[36],78.9%

# From PubChem BioAssay AID1963425 (Molecular Pharmacology Branch, DTP, NCI, 2024)
